The assay concerns human foreskin fibroblasts (HFF1y, Beijing Stem Cell Bank). Nature of the assay: Transdifferentiation of human foreskin fibroblasts into neurons in vitro (induction culture solution, then mature culture solution). It counts as cell-based. Conditions: for rank of gene expression level of neuronal markers (MAPT and MAP2) by myosin inhibitor in the culture solutions: induction 7 days, mature solution (with isoxazole) 7 days, Examples 8-12. The method, then:
After removing the fibronectin solution, the human foreskin fibroblasts (HFF1y, Beijing Stem Cell Bank) were evenly inoculated at 2×10^6 cells per vessel, culturing with basal medium (high glucose DMEM (Gibco, C12430500BT) plus 10% fetal bovine serum (Gibco, 16000-044)) for 12 hours. After removing the basal medium, the cells were washed with PBS.
An induction culture solution was added to the HFF1y vessel after undergoing the above treatment to culture for 1-7 days.
After the above induction culture for 1-7 days, a mature culture solution was added to HFF1y to culture for 7-45 days.

Setting [1] is: induction solution without Ble 7 days, then mature solution with ISX9 and without Ble 7 days.

The structures appear in SMILES notation.

`Cc1ccc2c(c1)C(=O)[C@]1(O)CCN(c3ccccc3)C1=N2` [Ble, (−)-Blebbistatin]: the “rank of gene expression level of neuronal markers (MAPT and MAP2) by myosin inhibitor in the culture solutions” value is “highest”. In addition, for the setting “induction culture system comprising only Ble, p<0.05”, the “RNA-seq, GO cluster analysis of up-regulated genes” value is “up-regulated genes in induced cells were enriched in the neuronal fate-related pathways”. Moreover, the “cell morphology after induction culture solution only” value (induction solution 25 μM Ble, 1-7 days, no isoxazole) was “obvious neuronal morphology, small and round cell bodies, and rich and long synapses”.
In the case of `Cc1ccc2c(c1)C(=O)[C@]1(OC(=O)c3ccccc3)CCN(c3ccccc3)C1=N2` [Ble-OB, (−)-Blebbistatin O-Benzoate], the “rank of gene expression level of neuronal markers (MAPT and MAP2) by myosin inhibitor in the culture solutions” value was “third”.
With `O=C(NC1CC1)c1cc(-c2cccs2)on1` [ISX9, isoxazole 9], under setting [1], the “cell morphology (micrograph)” value is “do not appear neuron-like morphology”; the “expressions of canonical neuronal markers (GFAP, TUJ1, MAP2, MAPT, STMN1, NCAM) and synapse-related proteins (NEFH, PSD95, SYN1, SYT)” value was “significantly up-regulated”; the “gene expression of fibroblast marker FSP1” value is “significantly down-regulated”; the “gene expression of neural transcription factors (ASCL1, BRN2, NEUROD1)” value is “up-regulated”.

Source of the values: US20230365927A1, “COMPOSITION AND METHOD FOR […] NON-NEURONAL CELLS INTO NEURONS” (INSTITUTE OF ZOOLOGY, CHINESE ACADEMY OF SCIENCES, priority 2020, published 2023).
